# Laboratory results reported in PubChem BioAssay AID434972 (The Scripps Research Institute Molecular Screening Center, 2010).
# The source made the active and inactive calls.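 Rule for the calls: active = inhibition of WEE1 degradation of at least 19%, seen as raised luminescence; inactive = the rest.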
# Molecular target: Wee1-like protein kinase (Homo sapiens) (UniProt P30291)
# Assay: Wee1 degradation inhibition by kinase inhibitors, SAR follow-up, cell-based, HeLa, WEE1K328M-luciferase, luminescence, powder samples (AID 434972)
# Settings: HeLa WEE1K328M-luciferase stability, at 0.25 µM, hits give high values
# Sequence of Wee1-like protein kinase (Homo sapiens) (P30291 whole entry K328M): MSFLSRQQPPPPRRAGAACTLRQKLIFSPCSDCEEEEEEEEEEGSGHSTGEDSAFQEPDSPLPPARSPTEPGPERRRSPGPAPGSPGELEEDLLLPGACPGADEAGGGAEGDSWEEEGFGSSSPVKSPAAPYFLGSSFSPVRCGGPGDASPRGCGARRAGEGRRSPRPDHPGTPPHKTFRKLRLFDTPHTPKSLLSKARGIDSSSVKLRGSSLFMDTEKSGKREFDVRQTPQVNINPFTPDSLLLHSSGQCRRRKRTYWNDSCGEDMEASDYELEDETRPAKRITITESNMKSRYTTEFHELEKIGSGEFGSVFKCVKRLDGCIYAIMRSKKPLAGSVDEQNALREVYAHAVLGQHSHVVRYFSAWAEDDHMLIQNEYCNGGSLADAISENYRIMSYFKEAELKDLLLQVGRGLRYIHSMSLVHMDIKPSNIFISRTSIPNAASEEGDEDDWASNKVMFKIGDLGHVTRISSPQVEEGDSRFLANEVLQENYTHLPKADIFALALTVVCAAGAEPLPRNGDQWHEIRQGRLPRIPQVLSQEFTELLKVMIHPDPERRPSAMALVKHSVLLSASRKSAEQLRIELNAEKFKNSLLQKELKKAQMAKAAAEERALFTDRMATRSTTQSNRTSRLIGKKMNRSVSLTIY
row,SMILES,inhibition of WEE1 degradation
1,c1ccc2[nH]c(CNc3nc(N4CCOCC4)nc4c3ncn4-c3ccsc3)nc2c1,56.8%
2,CCOC(=O)c1cccc2[nH]c(CNc3nc(N4CCOCC4)nc4c3ncn4-c3ccsc3)nc12,97.3%
3,FC(F)(F)c1cc(Br)c2nc(CNc3nc(N4CCOCC4)nc4c3ncn4-c3ccsc3)[nH]c2c1,13.4% (inactive)
4,Nc1ccc2nc(CNc3nc(N4CCOCC4)nc4c3ncn4-c3ccsc3)[nH]c2c1,8.3% (inactive)
5,OCCN1CCN(c2nc(NCc3nc4ccccc4[nH]3)c3ncn(-c4ccsc4)c3n2)CC1,10% (inactive)
6,O=C(NC1CC1)c1ccc(-c2nc(NCc3nc4ccccc4[nH]3)c3ncn(-c4ccsc4)c3n2)cc1,3.6% (inactive)
7,FC(F)(F)c1ccc2nc(CNc3nc(N4CCOCC4)nc4c3ncn4-c3ccsc3)[nH]c2c1,46.3%
8,FC(F)(F)c1cccc2[nH]c(CNc3nc(N4CCOCC4)nc4c3ncn4-c3ccsc3)nc12,10.8% (inactive)
9,c1ccc2[nH]c(CNc3nc(N4CCNCC4)nc4c3ncn4-c3ccsc3)nc2c1,14.5% (inactive)
10,O=[N+]([O-])c1ccc2nc(CNc3nc(N4CCOCC4)nc4c3ncn4-c3ccsc3)[nH]c2c1,18.7% (inactive)
11,N#Cc1ccc2nc(CNc3nc(N4CCOCC4)nc4c3ncn4-c3ccsc3)[nH]c2c1,85.9%
12,c1ccc2[nH]c(CNc3nc(N4CCCCC4)nc4c3ncn4-c3ccsc3)nc2c1,10.5% (inactive)
13,c1ccc2cc3[nH]c(CNc4nc(N5CCOCC5)nc5c4ncn5-c4ccsc4)nc3cc2c1,48.3%
14,CC(C)n1cnc2c(NCc3nc4ccccc4[nH]3)nc(Nc3cnccn3)nc21,5.3% (inactive)
15,C=CCN(CC=C)c1nc(NCc2nc3ccccc3[nH]2)c2ncn(-c3ccsc3)c2n1,8.2% (inactive)
16,CC(C)n1cnc2c(NCc3nc4ccccc4[nH]3)nc(Nc3ccncn3)nc21,4% (inactive)
17,c1ccc2[nH]c(CNc3nc(NCCN4CCOCC4)nc4c3ncn4-c3ccsc3)nc2c1,8.1% (inactive)
18,Fc1ccc2nc(CNc3nc(N4CCOCC4)nc4c3ncn4-c3ccsc3)[nH]c2c1,81.4%
19,c1cnc2ccc3[nH]c(CNc4nc(N5CCOCC5)nc5c4ncn5-c4ccsc4)nc3c2c1,22%

row,SMILES,inhibition of WEE1 degradation
1,c1ccc2c(c1)CCN2c1nc(NCc2nc3ccccc3[nH]2)c2ncn(-c3ccsc3)c2n1,7.9% (inactive)
2,c1ccc2[nH]c(CNc3nc(N4CCSCC4)nc4c3ncn4-c3ccsc3)nc2c1,11.4% (inactive)
3,NCCN1CCN(c2nc(NCc3nc4ccccc4[nH]3)c3ncn(-c4ccsc4)c3n2)CC1,8.6% (inactive)
4,COc1ccc2nc(CNc3nc(N4CCOCC4)nc4c3ncn4-c3ccsc3)[nH]c2c1,79.5%
5,CN1CCN(c2nc(NCc3nc4ccccc4[nH]3)c3ncn(-c4ccsc4)c3n2)CC1,14.1% (inactive)
6,Cc1ccnc(NC(=O)CCCOc2cc(=O)n(C)c3ccccc23)c1,6.4% (inactive)
7,c1ccc(N2CCN(c3nc(NCc4nc5ccccc5[nH]4)c4ncn(-c5ccsc5)c4n3)CC2)nc1,4% (inactive)
8,c1ccc2[nH]c(CNc3nc(Nc4cnccn4)nc4c3ncn4-c3ccsc3)nc2c1,2.9% (inactive)
9,CC(C)n1cnc2c(NCc3nc4c([N+](=O)[O-])cccc4[nH]3)nc(N3CCOCC3)nc21,111%
10,c1ccc2[nH]c(CNc3nc(N4CCCC4)nc4c3ncn4-c3ccsc3)nc2c1,9.9% (inactive)
11,CC(C)n1cnc2c(NCc3nc4ccccc4[nH]3)nc(Nc3cccnc3)nc21,3.4% (inactive)
12,c1ccc(-n2cnc3c(NCc4nc5ccccc5[nH]4)nc(N4CCOCC4)nc32)cc1,4% (inactive)
13,O=[N+]([O-])c1cccc2[nH]c(CNc3nc(N4CCOCC4)nc4c3ncn4-c3ccsc3)nc12,100%
14,CCOC(=O)c1cccc2[nH]c(CNc3nc(N4CCOCC4)nc4c3ncn4C(C)C)nc12,17% (inactive)
15,Nc1cccc2[nH]c(CNc3nc(N4CCOCC4)nc4c3ncn4-c3ccsc3)nc12,15.6% (inactive)
16,Clc1ccc2nc(CNc3nc(N4CCOCC4)nc4c3ncn4-c3ccsc3)[nH]c2c1,101%
17,C[C@@H](Nc1nc(NCc2nc3ccccc3[nH]2)c2ncn(-c3ccsc3)c2n1)c1ccccc1,9.2% (inactive)
18,CC(C)n1cnc2c(NCc3nc4ccccc4[nH]3)nc(N3CCOCC3)nc21,4.1% (inactive)
